We go through twelve molecules from ChEMBL document CHEMBL6078657, “Thiazolidinedione-based structure modification of ergosterol peroxide provides thiazolidinedione-conjugated derivatives as potent agents against breast cancer cells through a PI3K/AKT/mTOR pathway” (Bioorg Med Chem, 2025).

One data set has as its system A549. Nature of the data set: Antiproliferative activity against human A549 cells assessed as cell viability measured after 48 hrs incubation by MTT assay. The format is functional, cell-based. Conditions: A549, 48 h. (Tetrazolium dyes change colour on reduction, which living cells bring about.)
Another data set relates to HepG2. Nature of the data set: Antiproliferative activity against human HepG2 cells assessed as cell viability measured after 48 hrs incubation by MTT assay. The format is functional, cell-based. The following applies: HepG2, 48 h.
The test system of data set [1] is MCF7. Nature of the data set: Antiproliferative activity against human MCF7 cells assessed as cell viability measured after 48 hrs incubation by MTT assay. The format is functional, cell-based. Conditions: MCF7, 48 h.
Data set [2] deals with MCF7. Nature of the data set: Induction of apoptosis in human MCF7 cells assessed as viable cells at 6 uM measured after 48 hrs incubation by Annexin V-FITC/PI double staining assay (reference value: 92.8%). The format is functional. The following applies: read-out: Activity.
The subject of data set [3] is MCF7. Nature of the data set: Induction of apoptosis in human MCF7 cells assessed as early apoptotic cells at 6 uM measured after 48 hrs incubation by Annexin V-FITC/PI double staining assay (reference value: 5.73%). The format is functional.
The test system of data set [4] is MCF7. Nature of the data set: Induction of apoptosis in human MCF7 cells assessed as late apoptotic cells at 6 uM measured after 48 hrs incubation by Annexin V-FITC/PI double staining assay (reference value: 0.68%). The format is functional.
Data set [5] has as its system MCF7. Nature of the data set: Induction of apoptosis in human MCF7 cells assessed as necrotic cells at 6 uM measured after 48 hrs incubation by Annexin V-FITC/PI double staining assay (reference value: 0.77%). The format is functional.
Data set [6] relates to MCF7. Nature of the data set: Induction of apoptosis in human MCF7 cells assessed as decrease in mitochondrial membrane potential by measuring increase in JC-1 monomer (green fluorescence) at 6 uM incubated for 48 hrs by JC-1 staining based flow cytometry analysis (reference value: 2.96%). More on the design: scale not given: the % may be the effect or the level left. The format is functional. (A flow cytometer gives signals particle by particle.)

For data set [7], the system named is MCF7. Nature of the data set: Induction of cell cycle arrest in human MCF7 cells assessed as accumulation of cells at G0/G1 phase at 6 uM measured after 48 hrs by PI staining based flow cytometry analysis (reference value: 58.42%). The format is functional.
Data set [8] has as its system MCF7. Nature of the data set: Induction of cell cycle arrest in human MCF7 cells assessed as accumulation of cells at S phase at 6 uM measured after 48 hrs by PI staining based flow cytometry analysis (reference value: 24.67%). In kind it is functional.
For data set [9], the system named is MCF7. Nature of the data set: Induction of cell cycle arrest in human MCF7 cells assessed as accumulation of cells at G2/M phase at 6 uM measured after 48 hrs by PI staining based flow cytometry analysis (reference value: 16.91%). The format is functional.
The nature of data set [10]: Antiproliferative activity against human MCF-10A cells assessed as cell viability measured after 48 hrs incubation by MTT assay. The format is toxicity, cell-based.
A short description of data set [11]: Selectivity index, ratio of IC50 for human MCF-10A cells to IC50 for human MCF7 cells. Conditions: MCF-10A cells and MCF7 cells, read-out: Selectivity Index. In kind it is toxicity.
Data set [12] concerns 4T1. Nature of the data set: In vivo antitumor activity against mouse 4T1 cells transfected in BALB/c mouse assessed as tumor growth inhibition at 30 mg/kg, ip daily for 14 consecutive days relative to control. In kind it is functional. The following applies: 4T1, 336 h, time 14 day, read-out: TGI.
Data set [13] has as its system 4T1. Nature of the data set: In vivo antitumor activity against mouse 4T1 cells transfected in BALB/c mouse assessed as tumor growth inhibition at 15 mg/kg, ip daily for 14 consecutive days relative to control. The format is functional. The following applies: time 14.0 day.
A short description of data set [14]: Toxicity in healthy BALB/c mouse assessed as pathological changes in heart at 20 mg/kg, ip daily for 14 consecutive days by HE staining based assay. In kind it is organism-based. Conditions: in vivo, 336 h, time 14 day.

SMILES strings stand for the structures. Activity calls are given as the source filed them. The rule behind the calls is not given here.

Usually IC50 stands for the concentration that gives 50% inhibition.

On to `CC(C)[C@@H](C)/C=C/[C@@H](C)[C@H]1CC[C@@H]2[C@]1(C)CC[C@H]1[C@]23C=C[C@]2(C[C@@H](O)CC[C@]12C)OO3` [ERGOSTEROL PEROXIDE], for which the results for the 50% inhibitory concentration (IC50) in the data set on A549, in the data set with HepG2 and with MCF7 [1] were 15 µM, 18.1 µM and 19.4 µM, respectively. Besides, in the data set with MCF7 [2], the viability at 6 µM was found to be 90.1%. Also, the Activity with MCF7 [3] is 8.97%; in the data set with MCF7 [4] it was 0.45%; in the data set on MCF7 [5], 0.47%; in the data set with MCF7 [6], 11.3%; in the data set with MCF7 [7], 61.61%; with MCF7 [8], 18.74%. Besides, the Activity in the data set with MCF7 [9] is given as 19.66%.

For the molecule `CC(C)[C@@H](C)/C=C/[C@@H](C)[C@H]1CC[C@@H]2[C@]1(C)CC[C@H]1[C@]23C=C[C@]2(C[C@@H](OC(=O)NCCNC(=O)CN4C(=O)S/C(=C\c5ccc(Cl)cc5)C4=O)CC[C@]12C)OO3`, the IC50 with A549 stood at 8.91 µM; in the data set with HepG2 it was 8.92 µM; with MCF7 [1], 5.9 µM. The IC50 at 48 h in [10] stood at 28.9 µM. In addition, the selectivity ratio in data set [11] is 4.9.

In the case of `Cc1ccc(/C=C2\SC(=O)N(CC(=O)NCCNC(=O)O[C@H]3CC[C@]4(C)[C@H]5CC[C@]6(C)[C@@H]([C@H](C)/C=C/[C@H](C)C(C)C)CC[C@H]6[C@@]56C=C[C@]4(C3)OO6)C2=O)cc1`, the IC50 in the data set with A549 is 7.18 µM; with HepG2, 6.82 µM; with MCF7 [1] it was 4.71 µM. Moreover, the IC50 at 48 h in data set [10] came to 24.1 µM. Also, the selectivity ratio in data set [11] is 5.11.

On to `CC(C)[C@@H](C)/C=C/[C@@H](C)[C@H]1CC[C@@H]2[C@]1(C)CC[C@H]1[C@]23C=C[C@]2(C[C@@H](OC(=O)NCCNC(=O)CN4C(=O)S/C(=C\c5ccccc5)C4=O)CC[C@]12C)OO3`, for which the values for the IC50 with A549, with HepG2 and in the data set on MCF7 [1] were 11.4 µM, 7.95 µM and 6.8 µM, respectively. Moreover, in data set [10], the IC50 at 48 h was 41.6 µM. The selectivity ratio in data set [11] stood at 6.12.

Regarding `CC(C)[C@@H](C)/C=C/[C@@H](C)[C@H]1CC[C@@H]2[C@]1(C)CC[C@H]1[C@]23C=C[C@]2(C[C@@H](OC(=O)NCCNC(=O)CN4C(=O)S/C(=C\c5ccc(Br)cc5)C4=O)CC[C@]12C)OO3`, the IC50 in the data set with A549 stood at 7.9 µM; in the data set on HepG2, 7.34 µM; in the data set with MCF7 [1] it was 4.39 µM. Further, the IC50 at 48 h in data set [10] was determined as 45.3 µM. The selectivity ratio in data set [11] amounted to 10.3.

Regarding `COc1ccc(/C=C2\SC(=O)N(CC(=O)NCCNC(=O)O[C@H]3CC[C@]4(C)[C@H]5CC[C@]6(C)[C@@H]([C@H](C)/C=C/[C@H](C)C(C)C)CC[C@H]6[C@@]56C=C[C@]4(C3)OO6)C2=O)cc1OC`, the IC50 stood at 8.54 µM in the data set with A549, 6.18 µM in the data set with HepG2 and 5.33 µM in the data set on MCF7 [1]. Also, the IC50 at 48 h in [10] was 20.8 µM. The selectivity ratio in [11] was determined as 3.89.

In the case of `COc1ccc(/C=C2\SC(=O)N(CC(=O)NCCNC(=O)O[C@H]3CC[C@]4(C)[C@H]5CC[C@]6(C)[C@@H]([C@H](C)/C=C/[C@H](C)C(C)C)CC[C@H]6[C@@]56C=C[C@]4(C3)OO6)C2=O)c(OC)c1OC`, the IC50 in the data set on A549 was found to be 5.08 µM; in the data set on HepG2 it was 5.77 µM; in the data set on MCF7 [1] it was 4.26 µM. The IC50 at 48 h in data set [10] is 30.1 µM. Further, in [11], the selectivity ratio worked out at 7.07.

Consider `O=c1[nH]cc(F)c(=O)[nH]1` [FLUOROURACIL], for which the IC50 in the data set on A549 came out at 4.27 µM; in the data set with HepG2 it was 10.7 µM. For the same molecule, the inhibition in vivo at 30 mg/kg with 4T1 [12] was found to be 86.1%. Further, the TGI entry in the data set with 4T1 [13] is “Active”. For the same molecule, the Activity result in data set [14] was “Non-toxic”.

As for `CC(C)[C@@H](C)/C=C/[C@@H](C)[C@H]1CC[C@@H]2[C@]1(C)CC[C@H]1[C@]23C=C[C@]2(C[C@@H](OC(=O)NCCNC(=O)CN4C(=O)S/C(=C\C5CC5)C4=O)CC[C@]12C)OO3`, the IC50 in the data set on A549 amounted to 3.32 µM; in the data set with HepG2, 6.02 µM; in the data set with MCF7 [1], 5.49 µM. The IC50 at 48 h in data set [10] is 35.9 µM. Moreover, the selectivity ratio in [11] amounted to 6.55.

Regarding `CC(C)[C@@H](C)/C=C/[C@@H](C)[C@H]1CC[C@@H]2[C@]1(C)CC[C@H]1[C@]23C=C[C@]2(C[C@@H](OC(=O)CN4C(=O)CSC4=O)CC[C@]12C)OO3`, the IC50 in the data set with A549 is 7.52 µM; with HepG2, 17.7 µM; in the data set with MCF7 [1], 10.4 µM.

As for `CC(C)[C@@H](C)/C=C/[C@@H](C)[C@H]1CC[C@@H]2[C@]1(C)CC[C@H]1[C@]23C=C[C@]2(C[C@@H](OC(=O)NCCNC(=O)CN4C(=O)S/C(=C\c5ccc(F)cc5)C4=O)CC[C@]12C)OO3`, the IC50 came out at 9.17 µM with A549, 13.3 µM in the data set with HepG2 and 11.6 µM with MCF7 [1].

Turning to `CC(C)/C=C1/SC(=O)N(CC(=O)O[C@H]2CC[C@]3(C)[C@H]4CC[C@]5(C)[C@@H]([C@H](C)/C=C/[C@H](C)C(C)C)CC[C@H]5[C@@]45C=C[C@]3(C2)OO5)C1=O`, the IC50 in the data set with A549 is 7.65 µM; in the data set with HepG2, 14.6 µM; in the data set with MCF7 [1] it was 20.4 µM.
